Tests used:
[1] = test system: L1 5′UTR CpG islands; test: Bisulfite analysis of L1 5′UTR DNA methylation in NSCs; assay type: cell-based, rat; settings: treatment for 4-days
Description: Genomic DNA from NSCs was isolated using standard phenol-chloroform extraction techniques. Subsequently, DNA was digested with the restriction enzyme EcoRI and the bisulfite conversion reaction was performed using the Epitect kit (Quiagen), following manufacturer's instructions. Primers were designed based on the rat L1 sequence Mlvi2, using Methyl Primer Express; primers for L1 converted 5′UTR region: forward 5-[…]-3′ (SEQ ID NO:1) and reverse 5′-[…]-3′ (SEQ ID NO:2). PCR products were cloned into TOPO TA 2.1 plasmids (Invitrogen) and 40 bacterial colonies were analyzed by sequencing.

[2] = test system: endogenous rat L1 promoter region (5′UTR); test: ChIP of MeCP2 and Sox2 on the endogenous rat L1 promoter region in NSCs; assay type: cell-based; settings: for MeCP2 ChIP signal / association to the L1 promoter region: 500 ng/ml for 4 days
Text: ChIP assay was done essentially following the manufacturer's protocol using a ChIP assay kit (Upstate). Antibodies used were anti-MeCP2 (Upstate), Sox2 (Chemicon), and IgG. Purified DNA was amplified by PCR using primers for the rat L1 5′UTR promoter region (L1.3, accession # X03095).
(§1) Using chromatin immunoprecipitation (ChIP), high levels of MeCP2 were detected in association with the L1 promoter region (i.e., 5′UTR) in rat NSCs compared to differentiated neurons (FIG. 1F). To rule out differences in protein abundance that may differently influence ChIP amplification, western blot analysis was performed using lysates from cells that had undergone neuronal differentiation. […] Next, it was asked if releasing of MeCP2 from the methylated DNA would increase its association with Sox2 in solution. The Co-IP experiment in the presence of the 5-Aza was then repeated. […] It may be that both configurations can occur on the same L1 promoter region or each possibility is a L1 element sequence-dependent event.

[3] = test system: MeCP2 and Sox2; test: Co-immunoprecipitation between MeCP2 and Sox2; assay type: cell-based, rat; settings: in the presence of 5-Aza
Description: Immunofluorescence for EGFP was performed as previously described (11). A non-transgenic animal was used to measure the background fluorescence in the brain and to establish a threshold for detection. Western blotting was carried out using standard protocols with the following antibodies: mouse anti-Actin (1/500, Ambion), rabbit anti-MeCP2 (1/1000, Imgenex or Upstate), and rabbit anti-Sox2 (1/100, Chemicon). All secondary antibodies were purchased from Jackson ImmunoResearch. For co-immunoprecipitation, the Nuclear Complex Co-IP kit (Active Motif) was used, following the manufacturer's protocol with the highest stringency buffers.
as §1

- Sox2 binding to the L1 promoter ([2]; 5-Aza treatment): did riot prevent
Structure (SMILES): Nc1ncn([C@@H]2O[C@H](CO)[C@@H](O)[C@H]2O)c(=O)n1 [5-Azacytidine]
- removal of methyl radicals from the 5′UTR L1 region (bisulfite) [1]: completely removed
- MeCP2 ChIP signal / association to the L1 promoter region [2]: lost
- MeCP2 ChIP signal / association to the L1 promoter region ([2]; listed as 5-Azacitidine): reduced
- amount of MeCP2 in association with Sox2 in solution (Co-IP) [3]: increased

From patent US20140038896A1, “Retroelements and mental disorders and methods of measuring L1 retrotransposition” (Salk Institute for Biological Studies, priority 2009, published 2014)
